Measured values reported in patent US20090312250A1 (POSTECH ACADEMY-INDUSTRY FOUNDATION, priority 2006, published 2009).

Tests used:
MIN6 cells [1] = test: Insulin secretion assay in MIN6 cells; format: cell-based, mouse; conditions: for effect on EGF-induced insulin secretion: pre-treatment, then 15 nM EGF for 1 min, butanols 0.4%, 10 min
Protocol: Cell Culture The mouse insulin-producing cells MIN6m9 provided by Dr. Susumu Seino (Division of Cellular and Molecular Medicine, Kobe University Graduate School of Medicine, Kobe, Japan) were used between passages 19 and 25 and cultured in DMEM containing 25 mM glucose, 10 mM HEPES, 10% (v/v) fetal calf serum, 50 IU/ml penicillin, and 50 μg/ml streptomycin at 37° C. in a humidified CO2-controlled (5%) incubator. MIN6 cells were transfected using LipofectAMINE, as described previously (Kim et al., J Immunol 163:5462-5470, 1999) Transfection efficiency is about 30-40% by using LipofectAMINE.
(§1) Insulin Secretion Assay: Batches of 10-15 isolated islets or 1×10^6 cells/well grown in 12- or 24-well plates were washed twice with KRB supplemented with 0.2% bovine serum albumin (BSA), and then incubated for 60 min at 37° C. in the KRB solution. We used same number of islets in a same set of experiment. At the end of incubation, the solutions were replaced with fresh KRB containing test reagents and incubated for the designated time. The incubation medium was sampled and centrifuged to remove cells, and the supernatant was assayed for insulin with a radioimmunoassay (RIA) kit (Linco, St. Louis, Mo.).
The MIN6 cells were plated onto 24-well plates and grown for 24 h. The cells were washed twice with KRB supplemented with 0.2% BSA, and then incubated for 60 min at 37° C. in the KRB solution.
The incubation medium was sampled and centrifuged to remove cells, and the supernatant was assayed for insulin levels. The data shown are the mean±S.D. from two independent assays by duplicate. *, P<0.05 compared with not treated (NT) cells.
The incubation medium was sampled and centrifuged to remove cells, and the supernatant was assayed for insulin levels. The data shown are the mean±S.D. from two independent assays by duplicate. *, P<0.05 compared with not treated cells.
The incubation medium was sampled and centrifuged to remove cells, and the supernatant was assayed for insulin levels. The data shown are the mean±S.D. from two independent assays by duplicate. * or **, P<0.05 compared with 2.7 or 11 mM glucose-treated cells.
The incubation medium was sampled and centrifuged to remove cells, and the supernatant was assayed for insulin levels.
In FIG. 3B, the MIN6 cells were plated onto 24-well plates and grown for 24 h. The cells were washed twice with KRB supplemented with 0.2% BSA, and then incubated for 60 min at 37° C. in the KRB solution. […] The incubation medium was sampled and centrifuged to remove cells, and the supernatant was assayed for insulin levels.

PLD = PLD activity assay in MIN6 cells (PBt formation); format: cell-based, mouse; conditions: for effect on EGF-induced PLD activity: 30 min pre-incubation, then 15 nM EGF for 1 min
Protocol: PLD Activity Assay in Cells: Cells grown in 6-well plates were washed twice with KRB, and then labeled with [3H]myristic acid for 4 h at 37° C. in the KRB solution. PLD activity was assayed by measuring the formation of phosphatidylbutanol (PBt) (Kim J H et al., J Immunol 163:5462-5470, 1999). The intensities of PBt spots in the presence of 0.4% 1-butanol were measured, and PLD activity was obtained by subtracting the corresponding intensities of spots obtained in the absence of 1-butanol.
In FIG. 3A, the MIN6 cells were plated onto 6-well plates and grown for 24 h. The cells were washed twice with KRB, and then incubated for 4 h at 37° C. in the KRB solution in the presence of [^3H]myristic acid. […] The data shown are the mean±S.D. from two independent assays by duplicate.
In FIG. 4A, the MIN6 cells were plated onto 6-well plates and grown for 24 h. The cells were washed twice with KRB, and then incubated for 4 h at 37° C. in the KRB solution in the presence of [^3H]myristic acid. […] The intensities of PBt spots after 1 min accumulation in the presence of 1-butanol were measured, and results were obtained by subtracting the corresponding intensities of spots obtained in the absence of 1-butanol. The data shown are the mean±S.D. from two independent assays by duplicate. *, P<0.05 compared with EGF-treated cells.

MIN6 cells [2] = test: [Ca2+]i measurement in MIN6 cells (Fluo-3 AM, confocal microscope); format: cell-based, mouse
Protocol: Changes in intracellular Ca2+ levels were monitored using a Ca2+-sensitive dye under a confocal microscope. Cells were loaded with […] Fluo-3 AM for 40 min at room temperature. After washing with Krebs-Ringer bicarbonate (KRB; 129 mM NaCl, 5 mM NaHCO3, 4.8 mM KCl, 1.2 mM KH2PO4, 1.0 mM CaCl2, 1.2 mM MgSO4, 2.7 mM glucose, and 10 mM HEPES, pH 7.4) buffer, the cells were further incubated for 15 min in the absence of Fluo-3 AM to de-esterify the dye. To exclude the possible effects of dye loading, the present inventors normalized levels with saponin at the end of the experiments. To normalize, the present inventors measured the residual fluorescence (Fo) at the end of the experiment, and subtracted that from the fluorescence under experimental conditions (F). Excitation of Fluo-3 AM was performed at 488-nm by an argon laser, and the emission range was 515-nm. Images were captured on an inverted confocal microscope (Zeiss LSM 510 Meta, Oberkochen, Germany) with a 20× objective lens. The MIN6 cells were plated onto glass dishes or 24-well plates and grown for 24 h. The cells were washed twice with KRB supplemented with 0.2% BSA, and then incubated for 60 min at 37° C. in the KRB solution. In FIG. 2A, at the end of incubation, the solutions were replaced with fresh KRB containing Fluo-3 AM dissolved (1 mg/ml) in DMSO, and incubated for 1 h. […] Images were captured on an inverted confocal microscope with a 20× objective lens. To normalize, the present inventors measured the residual fluorescence (Fo) at the end of the experiment, and subtracted that from the fluorescence under experimental conditions (F). The data shown are the mean±S.E., n=7.

ICR mice = test: Plasma insulin levels in ICR mice after intravenous injection; format: in vivo, mouse; conditions: glucose 0.5 g/kg
Protocol: (§2) Measurement of Plasma Glucose and Plasma Insulin Levels: 7- to 8-week-old male ICR mice were purchased from Hyochang Science (Seoul, Korea). C57BLKSJ-db/db mice were purchased from SLC (Japan). […] Concentrations of plasma glucose were measured by the glucose oxidase method with a portable glucose meter (Gluco-Dr, Korea). Plasma was separated by centrifugation and the plasma insulin assay was performed using a RIA kit. Animal care was conducted in accordance with our institution's guidelines.

mouse pancreatic islets = test: Insulin secretion assay in mouse pancreatic islets; format: cell-based; conditions: 1 min treatment
Protocol: as §1
To prepare mouse pancreatic islets, pancreatic islets were isolated from 7- to 8-week-old male BALB/c mice (Hyochang Science, Korea), as described previously (Jonas J C, et al., Diabetes 47:1266-1273, 1998). Isolated islets were transferred onto a 12 well plate, with 10-15 islets per well. We used same number of islets in a same set of experiment. The islets were maintained for up to 2 days in RPMI1640 medium containing 5 mM glucose and 10% fetal calf serum, and supplemented with 100 µg/ml streptomycin and 100 U/ml penicillin.
The mouse pancreatic islets were plated onto 12-well plates and grown for 24 h. The islets were washed twice with KRB supplemented with 0.2% BSA, and then incubated for 60 min at 37° C. in the KRB solution. […]

C57BLKSJ-db/db mice [3] = test: Plasma insulin levels in obese db/db mice after intravenous injection; format: in vivo, mouse; conditions: EGF 50 μg/kg intravenous, 10 min after injection
Protocol: as §2
Plasma insulin levels before and 10 min after injection were compared. […] All animals had free access to water. Animal care was conducted in accordance with our institution's guidelines.

RINm5F = test: Insulin release in RINm5F cell line (data not shown); format: cell-based
C57BLKSJ-db/db mice [4] = test: Plasma glucose levels in obese db/db mice after intravenous injection; format: in vivo, mouse; conditions: EGF 50 μg/kg intravenous
Protocol: as §2

Compound: CCCCO [1-butanol, reference compound]
- effect on EGF-induced insulin secretion (MIN6 cells [1]; MIN6 cells): inhibited

Compound: CC(=O)OCOC(=O)CN(CC(=O)OCOC(C)=O)c1ccccc1OCCOc1ccccc1N(CC(=O)OCOC(C)=O)CC(=O)OCOC(C)=O [BAPTA/AM, 1,2-Bis(2-aminophenoxy)ethane-N,N,N′,N′-tetraacetic acid tetrakis (acet-oxymethyl ester)]
- effect on EGF-induced PLD activity (PLD): inhibited most of the PLD activity

Compound: O=C(O)CN(CCOCCOCCN(CC(=O)O)CC(=O)O)CC(=O)O [EGTA]
- effect on EGF-induced PLD activity (PLD): inhibited most of the PLD activity
- effect on EGF-stimulated extracellular Ca2+ influx (MIN6 cells [2]; 30 min pre-incubation, then 15 nM EGF): reduced

Compound: O=C[C@H](O)[C@@H](O)[C@H](O)[C@H](O)CO [glucose, reference compound]
- time required for Ca2+ influx (MIN6 cells [2]; data not shown): 3 to 4 min
- plasma insulin levels (ICR mice): increased plasma insulin levels

Compound: CC(C)(C)O [t-butanol, reference compound]
- effect on EGF-induced insulin secretion (MIN6 cells [1]; MIN6 cells): but not by t-butanol treatment

Compound: Epidermal growth factor [EGF]
- time to PLD activation by EGF stimulation (PLD; 15 nM EGF): ≤ 2 min
- insulin secretion (mouse pancreatic islets; 15 nM EGF): rapidly increased insulin secretion
- specificity of the insulin secretion effect among growth factors (mouse pancreatic islets; data not shown): specific among various growth factors
- insulin levels at basal concentration of glucose (MIN6 cells [1]; 2.7 mM glucose, 15 or 30 nM EGF, 5 min): increased insulin levels
- glucose-induced insulin release at high glucose levels (MIN6 cells [1]; 11 mM glucose, 15 or 30 nM EGF, 5 min): additively increased glucose-induced insulin release
- effective time of EGF treatment for insulin secretion (MIN6 cells [1]; MIN6 cells, 15 nM EGF): 1 to 2 min
- kinetics of stimulation of insulin secretion (MIN6 cells [1]; MIN6 cells, 15 nM EGF compared with 11 mM glucose): kinetics more rapid than glucose
- effective concentration of EGF for insulin secretion (MIN6 cells [1]; MIN6 cells, 1 min incubation): 1.5 to 15 nM
- insulin secretion (MIN6 cells [1]; MIN6 cells, 1 min treatment): significantly increased insulin secretion
- plasma insulin levels (C57BLKSJ-db/db mice [3]): increased plasma insulin levels
- extracellular Ca2+ influx (MIN6 cells [2]; MIN6 cells, 15 nM EGF): stimulated extracellular Ca2+ influx
- insulin release (RINm5F): could stimulate insulin release
- plasma glucose (C57BLKSJ-db/db mice [4]): reduced plasma glucose
- plasma insulin levels (ICR mice): increased plasma insulin levels
